{"source": "patent US12029682B2", "about": "“Spray ejector mechanisms and devices providing charge isolation and controllable droplet charge, and low dosage volume ophthalmic administration” (EYENOVIA, INC., priority 2012, dated 2024)", "format_in_all_cases": "in vivo, beagle dog", "key": {"[1]": {"test_system": "glaucomatous beagles", "test": "Ocular irritation observations in glaucomatous beagles", "method": "Active drug delivery begins on study day eight. For five days, IOP and PD measurements are taken at 0900. Immediately after 0900 measurements (time 0), each animal receives 6 μl of generic latanoprost in its assigned eye with the ejector device, followed by a second dosing 3 minutes later of an additional 6 μl (to avoid overloading the conjunctival sac). The contralateral eye receives a clinical dose (one drop) of the same commercially-available topical drug from FDA approved container (positive control). The ejector device is checked for accuracy before and after every use (Table 1). Standard measurements continue throughout each day (at 0:30, 0:45, 1, 2, 7 hrs). Possible endpoints include, but are not limited to, excessive ocular irritation, ocular damage, or other illness and injury. […]\n(§1) On study days 5-9, IOP and PD measurements were taken at approximately 0900 h (time 0). Immediately after these measurements, each animal received 6 μl of 0.03% bimatoprost in its assigned eye via the spray ejector device. The contralateral eye received a clinical dose (one drop) of the same commercially available topical drug from a traditional eyedropper (positive control). The spray ejector device was checked for accuracy before and after every use and required a 10% delivered dose accuracy in pretreatment. Standard measurements continued throughout each day at 0, 1, 2, 4, and 7 hours. Possible endpoints included, but were not limited to, excessive ocular irritation, ocular damage, and other illness or injury. No statistical crossover was utilized for this study.\nOphthalmic examinations (slit lamp with fluorescein and indirect ophthalmoscopy) were performed on the eyes of each animal prior to Study Day 1. Ocular findings were scored according to the McDonald-Shadduck Score System. Ocular findings were recorded using a standardized data collection sheet. Macroscopic observations were recorded in accordance with the Draize Scale for Scoring Ocular Lesions. Animals were assigned treatments based on basic randomization prior to study day one.\nFollowing a 7 day rest period, the eye choice was reversed. Measurements of IOP, heart rate and pupil diameter (PD) were made at 0:15, 0:30, 0:45, 1, 2, 4, 7, and 18 hours in the primary and crossover study. A veterinary ophthalmologist evaluated each test subject before and after the study for evidence of ocular side effects.\nOphthalmic examinations (slit lamp with fluorescein and indirect ophthalmoscopy) were performed on the eyes of each animal prior to study day 1. Ocular findings were scored according to the McDonald-Shadduck score system and macroscopic observations were recorded in accordance with the Draize scale for scoring ocular lesions. Ocular findings were recorded using a standardized data collection sheet."}, "[2]": {"test_system": "glaucomatous beagles", "test": "Intraocular pressure (IOP), TonoVet, in glaucomatous beagles"}, "[3]": {"test_system": "glaucomatous beagles", "test": "Intraocular pressure (IOP), TonoVet, in glaucomatous beagles", "conditions": "including control of morning IOP spike", "method": "(§2) One glaucomatous beagle dog (female, aged 3 years) from the University of Florida MacKay Colony of Glaucomatous Beagles was chosen for this study. The animal was rested a minimum of one week before starting the study. Prior to the commencement of the study, the animal was assigned one eye to receive 1.5 μl of 0.005% latanoprost and the contralateral eye to remain untreated as a control. The basic measurement protocol was followed at all times and performed by the same operator. PD was measured via Jameson Caliper (mm horizontally). IOP was measured using a TonoVet instrument with clean probe (iCare). IOP and PD were measured at time 0, 1, 2, 4, 7 and 18 hours daily for two days. Immediately after the time 0 measurement, the animal received 1.5 μl of 0.005% latanoprost in its assigned eye with a spray device. The contralateral eye was left untreated. The spray device was checked for accuracy before and after every use, and required a 10% delivered dose accuracy in pretreatment. Standard measurements continued throughout each day at time 1, 2, 4, 7 and 18 hours. Possible endpoints included, but were not limited to, excessive ocular irritation, ocular damage, and other illness or injury. No statistical crossover was utilized for this study.\nas §2, with “study.” for “study. The animal was rested a minimum of one week before starting the study.”, “receive 3.0” for “receive 1.5”, “0 measurements,” for “0 measurement,”, “animal was administered 3.0” for “animal received 1.5”, “eye using” for “eye with”, “spray ejector” for “spray”\nAll animals were rested for a minimum of one week before starting the trials. IOP and pupil diameter (PD) were measured 5 times (at 0, 1, 2, 4, and 7 hours) daily for four days (study days 1-4) to establish initial baseline levels. The basic measurement protocol was followed at all times and performed by the same operator. PD was measured via Jameson Caliper (mm horizontally). IOP was measured with a TonoVet instrument with clean probe (iCare). After three rest days, one eye was randomly assigned to receive 9 μl of 0.005% latanoprost delivered via a spray ejector device, and the contralateral eye was administered traditional latanoprost from a traditional eyedropper container (26-30 μl).\nas §1, with “time 0” for “these”, “a once-daily dose of 9” for “6”, “generic 0.005% latanoprost” for “0.03% bimatoprost”, “study. […]” for “study.”"}, "[4]": {"test_system": "glaucomatous beagles", "test": "Pupil diameter (PD), Jameson Caliper, in glaucomatous beagles"}, "[5]": {"conditions": "0.0005%, 0.002%, positively charged, 3 mcl"}, "[6]": {"conditions": "9 μl of 0.004% via spray ejector device, study day 1"}}, "note": "“Also recorded” adds a separate entry of the source."}
{"smiles": "CC(C)OC(=O)CCC/C=C\\C[C@@H]1[C@@H](/C=C/[C@@H](O)COc2cccc(C(F)(F)F)c2)[C@H](O)C[C@@H]1O", "note": "[travoprost]", "values": [{"measurement": "excessive eye irritation or other eye issues", "setting": "[1]; 9 μl of 0.004%, spray ejector device and micropipette", "result": "no reports of excessive eye irritation or other eye issues"}, {"measurement": "irritation vs eyedropper-treated eyes", "setting": "[1]; 18 μl of 0.004% via spray ejector device", "result": "less than that observed in the eyedropper-treated eyes"}, {"measurement": "IOP lowering compared to uncharged droplets", "setting": "[2]; [5]", "result": "greater IOP lowering"}, {"measurement": "IOP values vs baseline", "setting": "[2]; 0.004%, both treatments (18 μl spray ejector device, eyedropper)", "result": "much lower than baseline for a full 24 hours"}, {"measurement": "IOP lowering compared to uncharged droplets", "setting": "[2]; 0.004%, positively and negatively charged", "result": "greater IOP lowering"}, {"measurement": "IOP lowering", "setting": "[2]; 3 microliters, 0.002% and 0.0005%, spray ejector device with controllable droplet charge", "result": "greater IOP lowering"}, {"measurement": "spray ejector device vs micropipette treatment", "setting": "[2]; 9 μl of 0.004% each, throughout the study (p=0.7546)", "result": "no statistically significant differences"}, {"measurement": "highest average daily peak IOP", "setting": "[2]; 9 μl of 0.004% via spray ejector device, after 5 days of treatment", "result": 18.83, "unit": "mmHg"}, {"measurement": "time of significant changes in IOP from baseline", "setting": "[2]; [6]", "result": 12, "unit": "h"}, {"measurement": "post-treatment IOP", "setting": "[2]; 18 μl morning or evening dose via spray ejector device / traditional therapy", "result": "below 20 mmHg"}, {"measurement": "effectiveness at lowering/controlling IOP vs traditional therapy", "setting": "[2]; 18 μl of 0.004% once daily, morning or evening, via spray ejector device vs one drop (average 26 μl)", "result": "as effective at lowering IOP and constricting the pupil as the traditional therapy; also recorded: as effective at controlling IOP as traditional therapy"}, {"measurement": "difference in duration of IOP lowering, spray ejector device vs eyedropper", "setting": "[2]; 18 μl of 0.004% vs one drop", "result": "not significant"}, {"measurement": "duration of IOP lowering", "setting": "[2]; controllable droplet charge spray administration, 1xqd@hs dosing", "result": "full 24 hour IOP lowering"}, {"measurement": "lowering of IOP over a 24 hour period compared with other prostaglandin agonists studied", "setting": "[3]", "result": "most effective of the prostaglandin agonists studied"}, {"measurement": "decrease of pupillary diameter compared to uncharged droplets", "setting": "[4]; [5]", "result": "less decrease of pupillary diameter"}, {"measurement": "maximum miosis", "setting": "[4]; 9 μl of 0.004% via spray ejector device, at time 12 hours", "result": 1.17, "unit": "mm"}, {"measurement": "time of significant PD changes", "setting": "[4]; [6]", "result": 12, "unit": "h"}]}
